Measurements reported in US9695155B2, “Herbicidal substituted pyrimidinyloxy benzene compounds” (E. I. DU PONT DE NEMOURS AND COMPANY, priority 2013, dated 2017).

Key:
large (Lg) crabgrass = test: Test A preemergence; assay type: in vivo, Digitaria sanguinalis; details: Digitaria sanguinalis, pre-emergence, 240 h, read-out: Crabgrass, Large plant response rating
Procedure, shortened: (§1)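 Visual 0–100 rating (100 = complete control) taken about 10 d post-treatment relative to untreated checks. Preemergence: directed soil spray on sown loam/sand pots. Postemergence: seedlings 2–10 cm, 1–2 leaf. Non-phytotoxic solvent formulation with surfactant.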

yellow nutsedge = test: Test C postemergence; assay type: in vivo, Cyperus esculentus; details: Cyperus, post-emergence
Procedure, shortened: (§2)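 Sown in loam/sand → sprayed pre-emergence; or grown to 1–4 leaves in peat mix → sprayed post-emergence. Same solvent/surfactant formulation both ways. Greenhouse 13–15 d. Score 0–100 visual.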

wheat = test: Test A postemergence; assay type: in vivo, Triticum aestivum; details: Triticum aestivum, post-emergence, 240 h
Procedure, shortened: as §1

wheat, winter = test: Test C postemergence; assay type: in vivo, Triticum aestivum; details: Triticum aestivum, post-emergence
Procedure, shortened: as §2

giant foxtail = test: Test C postemergence; assay type: in vivo, Setaria faberii; details: Setaria faberi, post-emergence
Procedure, shortened: as §2

corn [1] = test: Test A preemergence; assay type: in vivo, Zea mays; details: Zea mays, pre-emergence, 240 h, read-out: Corn plant response rating
Procedure, shortened: as §1

rice = test: Test B flooded paddy test; assay type: in vivo, Oryza sativa; details: Oryza sativa; Flood, 250 g ai/ha; 0 to 100 scale where 0 is no effect and 100 is complete control; read-out: Plant response rating, Rice
Procedure, shortened: (§3)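 Greenhouse flooded-pot test: compounds dosed into 3 cm standing water over 2-leaf plants, flood held constant. Rated visually after 13–15 days on 0–100 (complete control = 100); a dash marks no test result.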

morningglory [2] = test: Test C postemergence; assay type: in vivo, Ipomoea coccinea; details: Ipomoea, post-emergence
Procedure, shortened: as §2

soybean = test: Test C postemergence; assay type: in vivo, Glycine max; details: Glycine max, post-emergence
Procedure, shortened: as §2

sedge, umbrella = test: Test B flooded paddy test; assay type: in vivo, Cyperus difformis; details: Cyperus difformis, Flood, 250 g ai/ha; 0 to 100 scale where 0 is no effect and 100 is complete control; read-out: Plant response rating, Sedge, Umbrella
Procedure, shortened: as §3

barnyardgrass [3] = test: Test A postemergence; assay type: in vivo, Echinochloa crus-galli; details: Echinochloa crus-galli, post-emergence, 240 h
Procedure, shortened: as §1

corn [4] = test: Test C postemergence; assay type: in vivo, Zea mays; details: Zea mays, post-emergence
Procedure, shortened: as §2

velvetleaf = test: Test A preemergence; assay type: in vivo, Abutilon theophrasti; details: Abutilon theophrasti, pre-emergence, 240 h, read-out: Velvetleaf plant response rating
Procedure, shortened: as §1

Heteranthera limosa = test: Test B flooded paddy test; assay type: in vivo; details: Heteranthera limosa, Flood, 250 g ai/ha; 0 to 100 scale where 0 is no effect and 100 is complete control; read-out: Plant response rating, Ducksalad
Procedure, shortened: as §3

morningglory [5] = test: Test A preemergence; assay type: in vivo, Ipomoea spp.; details: Ipomoea, pre-emergence, 240 h, read-out: Morningglory plant response rating
Procedure, shortened: as §1

ragweed = test: Test C postemergence; assay type: in vivo, Ambrosia elatior; details: Ambrosia artemisiifolia, post-emergence
Procedure, shortened: as §2

barnyardgrass [6] = test: Test B flooded paddy test; assay type: in vivo, Echinochloa crus-galli; details: Echinochloa crus-galli; Flood, 250 g ai/ha; 0 to 100 scale where 0 is no effect and 100 is complete control; read-out: Plant response rating, Barnyardgrass
Procedure, shortened: as §3

[7] = 125 g ai/ha, 0 to 100 scale where 0 is no effect and 100 is complete control
[8] = 500 g ai/ha, 0 to 100 scale, 0 no effect, 100 complete control, approx. 10 days
[9] = Postemergence, 31 g ai/ha, scale 0 to 100 (0 no effect, 100 complete control), 13 to 15 days
[10] = Postemergence, 62 g ai/ha, scale 0 to 100 (0 no effect, 100 complete control)

`Clc1cnn(-c2ccccc2Oc2ncc(Br)cn2)c1` [Compound 5, 5-bromo-2-[2-(4-chloro-1H-pyrazol-1-yl)phenoxy]pyrimidine] was tested, and the pest or weed control at 125 g/ha (large (Lg) crabgrass; [7]) was 90%, the pest or weed control at 500 g/ha (large (Lg) crabgrass; [8]) was 90% and the pest or weed control at 125 g/ha (yellow nutsedge; 125 g ai/ha, postemergence, read-out: Plant response rating (0 to 100), Nutsedge, Yellow) was 15%. For the same compound, the pest or weed control at 250 g/ha (yellow nutsedge; 250 g ai/ha, postemergence, read-out: Plant response rating (0 to 100), Nutsedge, Yellow) was 15%, the pest or weed control at 31 g/ha (yellow nutsedge; Postemergence, 31 g ai/ha, scale 0 to 100 (0 no effect, 100 complete control), 13 to 15 days, read-out: Plant response rating, Nutsedge, Yellow) was 5% and the pest or weed control at 62 g/ha (yellow nutsedge; Postemergence, 62 g ai/ha, scale 0 to 100 (0 no effect, 100 complete control), read-out: Plant response rating, Nutsedge, Yellow) was 5%. It also gave a plant injury at 125 g/ha (wheat; 125 g ai/ha, 0 to 100 scale where 0 is no effect and 100 is complete control, read-out: Plant response rating, Wheat) of 0%, a plant injury at 500 g/ha (wheat; 500 g ai/ha, 0 to 100 scale, 0 no effect, 100 complete control, read-out: Plant response rating Wheat) of 40% and a plant injury at 125 g/ha (wheat, winter; 125 g ai/ha, postemergence, read-out: Plant response rating (0 to 100), Wheat) of 10%. For the same compound, the plant injury at 250 g/ha (wheat, winter; 250 g ai/ha, postemergence, read-out: Plant response rating (0 to 100), Wheat) was 40%, the plant injury at 31 g/ha (wheat, winter; Postemergence, 31 g ai/ha, scale 0 to 100 (0 no effect, 100 complete control), 13 to 15 days, read-out: Plant response rating, Wheat) was 0% and the plant injury at 62 g/ha (wheat, winter; Postemergence, 62 g ai/ha, scale 0 to 100 (0 no effect, 100 complete control), read-out: Plant response rating, Wheat) was 5%. For the same compound, the pest or weed control at 125 g/ha (giant foxtail; 125 g ai/ha, postemergence, read-out: Plant response rating (0 to 100), Foxtail, Giant) was 5%, the pest or weed control at 250 g/ha (giant foxtail; 250 g ai/ha, postemergence, read-out: Plant response rating (0 to 100), Foxtail, Giant) was 10% and the pest or weed control at 31 g/ha (giant foxtail; Postemergence, 31 g ai/ha, scale 0 to 100 (0 no effect, 100 complete control), 13 to 15 days, read-out: Plant response rating, Foxtail, Giant) was 5%. It also gave a pest or weed control at 62 g/ha (giant foxtail; Postemergence, 62 g ai/ha, scale 0 to 100 (0 no effect, 100 complete control), read-out: Plant response rating, Foxtail, Giant) of 5%, a plant injury at 125 g/ha (corn [1]; [7]) of 0% and a plant injury at 500 g/ha (corn [1]; [8]) of 0%. The plant injury at 250 g/ha (rice) was 10%, the pest or weed control at 125 g/ha (morningglory [2]; 125 g ai/ha, postemergence, read-out: Plant response rating (0 to 100), Morningglory) was 60% and the pest or weed control at 250 g/ha (morningglory [2]; 250 g ai/ha, postemergence, read-out: Plant response rating (0 to 100), Morningglory) was 90%. For the same compound, the pest or weed control at 31 g/ha (morningglory [2]; Postemergence, 31 g ai/ha, scale 0 to 100 (0 no effect, 100 complete control), 13 to 15 days, read-out: Plant response rating, Morningglory) was 40%, the pest or weed control at 62 g/ha (morningglory [2]; Postemergence, 62 g ai/ha, scale 0 to 100 (0 no effect, 100 complete control), read-out: Plant response rating, Morningglory) was 60% and the Soybean plant response rating (crop injury, 0-100 scale) at 125 g/ha (soybean; 125 g ai/ha, postemergence, read-out: Plant response rating (0 to 100), Soybean) was 95%. It also gave a Soybean plant response rating (crop injury, 0-100 scale) at 250 g/ha (soybean; 250 g ai/ha, postemergence) of 95%, a Soybean plant response rating (crop injury, 0-100 scale) at 31 g/ha (soybean; [9]) of 55% and a Soybean plant response rating (crop injury, 0-100 scale) at 62 g/ha (soybean; [10]) of 90%. The pest or weed control at 250 g/ha (sedge, umbrella) was 50%, the pest or weed control at 125 g/ha (barnyardgrass [3]; 125 g ai/ha, 0 to 100 scale where 0 is no effect and 100 is complete control, read-out: Plant response rating, Barnyardgrass) was 10% and the pest or weed control at 500 g/ha (barnyardgrass [3]; 500 g ai/ha, 0 to 100 scale, 0 no effect, 100 complete control, read-out: Plant response rating Barnyardgrass) was 60%. It also gave a plant injury at 125 g/ha (corn [4]; 125 g ai/ha, postemergence, read-out: Plant response rating (0 to 100), Corn) of 60%, a plant injury at 250 g/ha (corn [4]; 250 g ai/ha, postemergence, read-out: Plant response rating (0 to 100), Corn) of 70% and a Corn plant response rating (crop injury, 0 = no effect, 100 = complete kill) at 31 g/ha (corn [4]; [9]) of 15%. It also gave a Corn plant response rating (crop injury, 0 = no effect, 100 = complete kill) at 62 g/ha (corn [4]; [10]) of 20%, a pest or weed control at 125 g/ha (velvetleaf; [7]) of 90% and a pest or weed control at 500 g/ha (velvetleaf; [8]) of 100%. For the same compound, the pest or weed control at 250 g/ha (Heteranthera limosa) was 50%, the pest or weed control at 125 g/ha (morningglory [5]; [7]) was 0% and the pest or weed control at 500 g/ha (morningglory [5]; [8]) was 20%. It also gave a pest or weed control at 125 g/ha (ragweed; 125 g ai/ha, postemergence, read-out: Plant response rating (0 to 100), Ragweed) of 55%, a pest or weed control at 250 g/ha (ragweed; 250 g ai/ha, postemergence, read-out: Plant response rating (0 to 100), Ragweed) of 85% and a pest or weed control at 31 g/ha (ragweed; Postemergence, 31 g ai/ha, scale 0 to 100 (0 no effect, 100 complete control), 13 to 15 days, read-out: Plant response rating, Ragweed) of 15%. It also gave a pest or weed control at 62 g/ha (ragweed; Postemergence, 62 g ai/ha, scale 0 to 100 (0 no effect, 100 complete control), read-out: Plant response rating, Ragweed) of 45% and a pest or weed control at 250 g/ha (barnyardgrass [6]) of 0%.
